# Patent US20010038822A1, “Melanotropin analogs for potential radiopharmaceuticals for diagnosis and treatment of melanoma” (priority 1998, published 2001)
# Where two headings read alike, the source gives them in different places. Positions of bridges follow the written chain, without caps; N, C: chain ends. Non-standard residues stand in square brackets, D forms with d. Residues, ends and D or L forms follow the SMILES beside them.
# Assays:
# [1] = target: T1, α-MSH receptor on B16-F1 murine melanoma cells (Mus musculus, UniProt Q01727); assay: Competitive receptor binding assay with ^125I-[Nle^4, D-Phe^7]-α-MSH
# T1 construct: endogenous in cells; host or cells: B16-F1 murine melanoma cells
# T1 sequence (Q01727 whole entry): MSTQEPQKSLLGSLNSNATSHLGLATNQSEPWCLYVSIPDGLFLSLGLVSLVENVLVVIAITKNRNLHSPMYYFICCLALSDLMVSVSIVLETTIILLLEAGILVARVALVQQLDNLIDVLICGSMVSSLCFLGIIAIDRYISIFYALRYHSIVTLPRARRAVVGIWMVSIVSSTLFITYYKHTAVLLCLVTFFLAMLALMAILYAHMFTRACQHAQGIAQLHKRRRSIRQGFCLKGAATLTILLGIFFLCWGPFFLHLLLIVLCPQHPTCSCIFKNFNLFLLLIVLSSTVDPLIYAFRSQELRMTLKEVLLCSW
# Experimental: Quantitative receptor binding assays were carried out following a previously described method (Siegrist W., 1988; Sahm, U. G., 1994). Cells were seeded at a density of 5×10^5 cells per well in 24 well tissue culture plates and exposed to varying concentrations of peptides on 0.5 mL of binding media (25 mM HEPES/NaOH pH=7.4, 0.2% BSA, 0.3 mM 1,10-phenanthroline, and approximately 100,000 CPM of ^125I-[Nle^4, D-Phe^7]-α-MSH) (36) at 4° C. for 8 hours. The cells were rinsed with PBS, lysed with 1 M NaOH and counted in a 1275 minigamma gamma counter from LKB Wallac.
# [2] = test system: B16F1 murine melanoma cells; type: cell-based
# Experimental: Peptide bioactivity was determined by measuring melanin released into cell culture media in an in vitro assay using B16F1 murine melanoma cells (Siegrist, W., 1986). Cells were incubated with various concentrations of peptide and assayed for melanin production by measuring the absorbance of the culture media at 405 nm. Absorbance values were compared to a standard curve obtained using synthetic melanin from Sigma. The standard curve was linear over the experimental range of absorbance values.
# [3] = Stabilities of tracer level complexes under challenge (10 mM cysteine / 0.05M phosphate); type: physicochemical
# Experimental: ^99mTcO4^− was obtained from a ^99Mo/^99mTc generator produced by Mallinckrodt, Inc. ^188Re was obtained from a ^188W/^188Re generator produced by the University of Missouri research reactor. Radiolabeled peptides were prepared by substitution onto either ^99mTc- or ^188Re-glucoheptonate. For ^188Re complexes, 500 μL of generator eluant was added to a tube containing 50 mg Na-glucoheptonate and 10 mg SnCl2.2H2O dissolved in 200 μL N2-purged 5% disodium-EDTA and heated at 70-80° C. for 0.5 hour. 50 μL of a 1 mg/mL peptide solution was then added, the pH was adjusted to 7-8 with 0.5 N NaOH, and the mixture was allowed to incubate for 90 minutes. at 70-80° C. Syntheses of ^99mTc-labeled peptides differed only in that they were carried out at 25° C. using a 10-fold lower concentration of SnCl2.2H2O.
compound,measurement,setting,value
"CC(=O)N[C@H]1CSSC[C@@H](C(=O)N[C@@H](CCCCN)C(=O)N2CCC[C@H]2C(=O)N[C@H](C(N)=O)C(C)C)NC(=O)[C@H](Cc2c[nH]c3ccccc23)NC(=O)[C@H](CCCNC(=N)N)NC(=O)[C@@H](Cc2ccccc2)NC(=O)[C@H](Cc2c[nH]cn2)NC(=O)[C@H](CCC(=O)O)NC1=O [APOMSH, NA-Cys-Glu-His-D-Phe-Arg-Trp-Cys-Lys-Pro-Val-NH2, reference compound] (Ac-CEH[dF]RWCKPV-NH2; disulfide 1-7)",Ki,"[1]; B16-F1 murine melanoma cells, read-out: Ki",0.68 nM
same,EC50,[2],0.026 nM
"CC(=O)N[C@@H](CS)C(=O)N[C@@H](CCC(=O)O)C(=O)N[C@@H](Cc1c[nH]cn1)C(=O)N[C@H](Cc1ccccc1)C(=O)N[C@@H](CCCNC(=N)N)C(=O)N[C@@H](Cc1c[nH]c2ccccc12)C(=O)N[C@@H](CS)C(=O)N[C@@H](CCCCN)C(=O)N1CCC[C@H]1C(=O)N[C@H](C(N)=O)C(C)C (188Re complex, metal not drawn) [^188ReMSH] (Ac-CEH[dF]RWCKPV-NH2)",Stability of tracer level complex,"[3]; 10 mM Cysteine challenge, 4 hrs",48.9%
same,Stability of tracer level complex,"[3]; 10 mM Cysteine challenge, 24 hrs",34.0%
same,Stability of tracer level complex,"[3]; 0.05M Phosphate challenge, 4 hrs",90.3%
same,Stability of tracer level complex,"[3]; 0.05M Phosphate challenge, 24 hrs",66.4%
same,half-life,"[3]; 0.05M phosphate with 10 mM cysteine, in competition with 10 mM free cysteine, read-out: t½ (converted)",~4 h
"rhenium complex of NAc-Cys-Cys-Glu-His-D-Phe-Arg-Trp-Cys-Lys-Pro-Val-NH2, APOMSH analog with additional N-terminal Cys [ReCCMSH]",receptor binding affinity higher than that of ReMSH,[1],approximately 25 fold
same,Ki,[1]; read-out: receptor binding affinity,2.9 nM
same,EC50,"[2]; B16-F1 murine melanoma cells, read-out: EC50 melanin synthesis",0.035 nM
same,ability to stimulate melanin production,[2]; compared with APOMSH,almost identical to APOMSH
